These results are taken from US10653691B2, “Method of promoting remyelination” (Case Western Reserve University, priority 2013, dated 2020).

The conditions of data set [1]: mice, intraperitoneal. The protocol: After 1 or 6 h, […] of plasma was collected then each animal was perfused with PBS. Brains were collected, weighed, and rinsed with PBS. Water (0.5 ml) was added to the brain samples, which were then homogenized. Plasma and brain samples were each diluted fivefold with blank rat plasma. Three hundred microlitres of internal standard solution was added to the samples, vortexed, and centrifuged. Five microlitres of each sample was injected into an API-4000Qtrap mass spectrometer and quantified (Climax Labs).

The next data set deals with naive CD4+ T cells. In words: Naive CD4+ T-cell assays. In kind it is cell-based, mouse. The following applies: Th1 or Th17 driving conditions, 4 days. Here is the method:
Naive CD4+ T cells (CD4+L-selectin^hi cells) were purified using AutoMacs Magnetic Bead cell separation technology (Miltenyi Biotech) from total lymph node cells isolated from unprimed mice with purity ranging from 98 to 99.9%. For in vitro activation, 5×10^5 naive CD4^+ T cells were activated in the presence of plate-bound anti CD3 (1 μgml^−1) plus Th1—(200 U ml^−1 interleukin-2 (IL-2), 40 U ml^−1 IL-12, 10 μgml^−1 anti-IL-4) or Th17—([…], 50 ng ml^−1 IL-6, 1 μgml^−1 anti-IFN-γ, 1 μgml^−1 anti-IL-4, 1 μgml^−1 anti-IL-2) promoting conditions. On day 4, the cultured T cells were collected and the percentage of viable cytokine positive cells assessed by flow cytometry. The cells were stained with a LIVE/DEAD Fixable Violet Dead Cell Stain Kit, for 405 nm excitation (Life Technologies), anti CD4-APC/Cy7 (clone RM4-5), anti-IFN-γ-PerCP/Cy5.5 (clone XMG1.2), and anti-IL-17-APC (clone eBio17B7) (eBioscience). Viable cells (5×10^5) were analysed per individual sample using a BD Canto II cytometer (BD Biosciences), and the data were analysed using FloJo version 9.5.2 software (Tree Star).

Data set [2] has as its system mouse OPCs. In words: RNA sequencing of drug-treated OPCs. In kind it is cell-based. The following applies: 2, 6 or 12 h of drug treatment. Here is the method: Cells were lysed directly in 1 ml TRIzol (Invitrogen) and stored at −80° C. Once all samples were collected, samples were thawed on ice and separated with chloroform using Phase Lock Gel tubes (5 PRIME). RNA was isolated using the miRNeasy PlusMini Kit (Qiagen) according to the manufacturer's protocol. One microgram of each sample was then poly-A selected, fragmented, and library prepared using the TruSeqRNA Sample Prep Kit (Illumina) according to the manufacturer's protocol. Samples were indexed using TruSeq adapters. One hundred base-pair paired-end reads were generated for each sample on an Illumina HiSeq 2500 instrument at the Case Western Reserve University Genomics Core facility. Between 5 million and 13 million reads were generated per sample for drug time course experiments. […] EpiSCs, EpiSC OPCs, and in vivo OPCs were sequenced to depths of 51,271,458 reads, 61,072,460 reads, and 62,530,709 reads, respectively. […]
Reference genome files were retrieved from Illumina iGenomes. Reads were aligned to the mm9 genome using Tophat version 2.0.8 with default settings. Expression values of known RefSeq genes were calculated in units of fragments per kilobase per million reads (FPKM) using Cufflinks version 2.0.2. […] The collective list of changed genes for each drug was evaluated with Ingenuity Pathway Analysis (application build 261899, content version 18030641).

For data set [3], the system named is PLP139-151 EAE mouse model. In words: PLP139-151-induced relapsing remitting EAE. The format is in vivo. The source says: Six- to seven-week-old female SJL/J mice were induced with PLP139-151 as for ex vivo recall assays. Mice were allowed to progress to disease onset at day 13 before being randomized into treatment groups (n=10 mice per group). […] This period fully encompassed the acute phase of disease onset followed by remission and the primary disease relapse. Treatments were blinded to the experimenters performing the assays.

The test system of another data set is ERK1/2. The experiment in a line: Western blot of ERK1/2 phosphorylation in mouse fibroblasts. The format is cell-based. The following applies: non-neural cell type, treated for 1 h. For orientation: In western blotting, separated proteins are transferred to a membrane and probed.
Data set [4] relates to mouse OPCs. The experiment in a line: Global phosphoproteomics of drug-treated OPCs. In kind it is cell-based. The settings on record: 1 and 5 h after treatment. The protocol: Briefly, for each sample 30 million cells were lysed with 2% SDS solution with protease and phosphatase inhibitor (Thermo Fisher), and detergent was removed on 200 μl of the cell lysate using the FASP cleaning procedure. Each sample was digested by a two-step Lys-C/trypsin proteolytic cleavage and subjected to phospho-enrichment using a commercially available TiO2 enrichment spin tips (Thermo Fisher). LC-MS/MS analysis used a UPLC system (NanoAcquity, Waters) that was interfaced to an Orbitrap ProVelos Elite MS system (Thermo Fisher). Fold-change calculations were determined from peptide intensities for each drug versus DMSO at each time point. Phosphopeptides with greater than twofold change were imported into Ingenuity Pathway Analysis to elucidate signalling pathways perturbed with drug treatment.

As to `C[C@H]1C[C@H]2[C@@H]3CCC4=CC(=O)C=C[C@]4(C)[C@@]3(F)[C@@H](O)C[C@]2(C)[C@@]1(O)C(=O)CCl` [clobetasol], the “crossing of the blood-brain barrier” value in data set [1] was “readily crossed the blood-brain barrier”. Besides, the “naive T-cell differentiation” value in the data set on naive CD4+ T cells is “altered naïve T-cell differentiation”. Also, the “modulation of gene expression” value in the data set with mouse OPCs [2] is “potently modulated genes downstream of multiple nuclear hormone receptors”. Moreover, in data set [3] (daily i.p. day 13 to 29, clobetasol 2 mg/kg, miconazole 10 mg/kg, benztropine 10 mg/kg), the “efficacy in reducing disease severity” value was “showed efficacy in reducing disease severity”. The “T cells within the spleen” value in data set [3] (day 29, 2 mg/kg) was “severe reduction of T cells within the spleen”.
`Clc1ccc(COC(Cn2ccnc2)c2ccc(Cl)cc2Cl)c(Cl)c1` (stereo not shown) [miconazole]: the “ERK1/2 phosphorylation in mouse fibroblasts” value in the data set with ERK1/2 was “no increase of ERK1/2 phosphorylation”. In addition, the “pathways affected in phosphoproteomic analysis” value in the data set with mouse OPCs [4] is “proteins in the mitogen-activated protein (MAP) kinase pathway were most strongly affected”.
